Test results published in ChEMBL document CHEMBL5214979 (J Med Chem, 2022).

Assays:
[1] = Apparent permeability of the compound from apical to basolateral side in human Caco-2 cells incubated for 2 hrs by LC-MS/MS analysis; settings: caco-2, 2 h
[2] = Upregulation of BCAA expression in human MDA-MB-231 cells; type: functional, cell-based
[3] = target: T1, Branched-chain-amino-acid aminotransferase, mitochondrial (Homo sapiens, UniProt O15382); assay: Inhibition of human recombinant BCAT2 using leucine and alpha-KG as substrate in presence of NADH by fluorescence assay
T1 sequence (O15382 whole entry): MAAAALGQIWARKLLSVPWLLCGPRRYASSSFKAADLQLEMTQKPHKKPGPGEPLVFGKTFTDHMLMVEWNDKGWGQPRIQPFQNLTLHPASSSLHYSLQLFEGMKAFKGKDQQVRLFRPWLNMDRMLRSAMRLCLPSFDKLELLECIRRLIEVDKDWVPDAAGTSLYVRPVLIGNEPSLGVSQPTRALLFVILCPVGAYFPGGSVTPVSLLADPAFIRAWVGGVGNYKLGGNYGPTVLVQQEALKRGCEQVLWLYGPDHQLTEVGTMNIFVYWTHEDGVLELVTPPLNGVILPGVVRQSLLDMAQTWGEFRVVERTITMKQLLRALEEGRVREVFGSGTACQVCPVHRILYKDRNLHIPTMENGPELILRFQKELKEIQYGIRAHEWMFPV

[4] = target: T2, Branched-chain-amino-acid aminotransferase, cytosolic (Homo sapiens, UniProt P54687); assay: biochemical
T2 sequence (P54687 whole entry): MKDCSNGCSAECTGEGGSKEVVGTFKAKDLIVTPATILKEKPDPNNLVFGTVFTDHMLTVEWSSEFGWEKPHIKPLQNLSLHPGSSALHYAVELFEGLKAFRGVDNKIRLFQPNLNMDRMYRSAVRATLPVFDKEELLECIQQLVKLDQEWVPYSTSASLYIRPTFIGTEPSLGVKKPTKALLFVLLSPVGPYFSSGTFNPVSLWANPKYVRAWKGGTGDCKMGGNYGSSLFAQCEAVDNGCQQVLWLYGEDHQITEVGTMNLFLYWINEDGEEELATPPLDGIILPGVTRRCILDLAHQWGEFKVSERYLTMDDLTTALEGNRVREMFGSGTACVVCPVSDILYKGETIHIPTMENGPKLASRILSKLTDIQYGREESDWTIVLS
Description: Inhibition of N-terminal his-tagged human recombinant BCAT1 expressed in Escherichia coli BL21(DE3) cells using leucine and alpha-KG as substrate in presence of NADH by fluorescence assay

[5] = Metabolic stability in human liver microsomes assessed as blood clearance incubated upto 60 mins by LC-MS/MS analysis; type: ADME, Microsome
[6] = Metabolic stability in Wistar Han rat hepatocyte assessed as blood clearance at 1 uM incubated upto 90 mins by LC-MS/MS analysis; type: ADME, cell-based; settings: hepatocytes
[7] = Metabolic stability in human liver microsomes assessed as maximal oral bioavailability incubated upto 60 mins by LC-MS/MS analysis; type: ADME, Microsome
[8] = Apparent permeability of the compound from basolateral to apical side in human Caco-2 cells incubated for 2 hrs by LC-MS/MS analysis; type: ADME, cell-based; settings: caco-2, 2 h
[9] = Lipophilicity, logD of compound at pH 7.5; type: physicochemical; settings: buffer
[10] = Aqueous solubility of compound in PBS buffer at pH 6.5 incubated for 24 hrs by HPLC-UV analysis; type: physicochemical; settings: pH 6.5, 24 h

Row | SMILES | Papp [1] | further results
1 | COc1cc(C#N)c(Oc2ccccc2C)cc1-n1c(=O)cc(C(F)(F)F)[nH]c1=O | 2.3 ×10⁻⁶ cm/s | 
2 | CCCc1cc(=O)n2nc(NCc3c(F)cc(Cl)cc3F)c(C#N)c2[nH]1 |  | IC50 [2]: 564 µM
3 | COc1cc(C#N)c(Oc2ccccc2C)cc1-n1c(=O)cc(S(C)(=O)=O)[nH]c1=O | 2.9 ×10⁻⁶ cm/s | 
4 | N#Cc1cc(F)c(-n2c(=O)cc(C(F)(F)F)[nH]c2=O)cc1Oc1ccccc1 |  | IC50 [3]: 13.4 µM
5 | COc1cc(OC)c(-n2c(=O)cc(C(F)(F)F)[nH]c2=O)cc1Cl |  | IC50 [3]: 20 µM; IC50 [4]: 3.3 µM
6 | COc1cc(C#N)c(Oc2ccccc2C)cc1-n1c(=O)cc(C(F)(F)Cl)[nH]c1=O | 3 ×10⁻⁶ cm/s | 
7 | Cc1ccccc1Oc1cc(-n2c(=O)cc(C(F)(F)F)[nH]c2=O)c(C)cc1C#N | 4.8 ×10⁻⁶ cm/s | 
8 | COc1cc(Cl)c(Oc2ccccc2C)cc1-n1c(=O)cc(C(F)(F)F)[nH]c1=O | 19.9 ×10⁻⁶ cm/s | 
9 | COc1cc(C#N)c(Oc2ccccc2C)cc1-n1c(=O)cc(C(F)(F)c2ccccc2)[nH]c1=O | 32.9 ×10⁻⁶ cm/s | 
10 | Cc1ccccc1Oc1cc(-n2c(=O)cc(C(F)(F)F)[nH]c2=O)c(F)cc1C#N |  | IC50 [3]: 13.3 µM
11 | CNC(=O)c1ccn2c(-n3c(=O)cc(C(F)(F)F)[nH]c3=O)c(-c3ccccn3)nc2c1 |  | IC50 [4]: 0.85 µM

Continued, in another order:

Row | Papp [1] | SMILES | further results
12 | 0.05 ×10⁻⁶ cm/s | COc1cc(C#N)c(Oc2ccccc2C)cc1-n1c(=O)cc(S(=O)(=O)c2ccccc2)[nH]c1=O | 
13 | 1.1 ×10⁻⁶ cm/s | COc1cc(C#N)c(Oc2ccccc2C)cc1-n1c(=O)cc(C(N)=O)[nH]c1=O | 
14 | 27.5 ×10⁻⁶ cm/s | Cc1ccccc1Oc1cc(-n2c(=O)cc(C(F)(F)F)[nH]c2=O)c2ccccc2c1 [BAY-771] | CLhep predicted [5]: 13.2 mL/min/kg; CLhep predicted at […], 1 µM [6]: 41.7 mL/min/kg; Fh at 1 h [7]: 40%; Papp [8]: 17.1 ×10⁻⁶ cm/s; logD [9]: 2.2; solubility [10]: > 412 µg/mL
15 | 7.1 ×10⁻⁶ cm/s | COc1cc(C#N)c(Oc2ccccc2C)cc1-n1c(=O)cc(Br)[nH]c1=O | 
16 | 28.4 ×10⁻⁶ cm/s | COc1cc(C#N)c(Oc2ccccc2C)cc1-n1c(=O)cc(-c2ccccc2)[nH]c1=O | 
17 | 3.3 ×10⁻⁶ cm/s | COc1cc(C#N)c(Oc2ccccc2C)cc1-n1c(=O)cc(C(F)(F)C(F)(F)F)[nH]c1=O | 
